This is an account of results in US6410581B1, “Disubstituted biphenyloxazolines” (Bayer Aktiengesellschaft, priority 1997, dated 2002).

Data set [1] has as its system greenhouse red spider mite (Tetranychus urticae). As to the kind of experiment: Tetranychus test (OP resistant/dip treatment). Conditions: active compound concentration 0.01%, after 7 days. It is filed as in vivo. How it is done:
Tetranychus Test (OP Resistant/Dip Treatment)
Solvent: 3 parts by weight of dimethylformamide
(§1) Emulsifier: 1 part by weight of alkylaryl polyglycol ether
To produce a suitable preparation of active compound, 1 part by weight of active compound is mixed with the stated amount of solvent and the stated amount of emulsifier, and the concentrate is diluted to the desired concentration using emulsifier-containing water.
Bean plants (Phaseolus vulgaris) which are heavily infested by all stages of the greenhouse red spider mite (Tetranychus urticae) are dipped into an active compound preparation of the desired concentration.
After the desired period of time, the kill in % is determined. 100% means that all the spider mites have been killed; 0% means that none of the spider mites have been killed.

In data set [2] the test system is caterpillars of the owlet moth (Spodoptera frugiperda). Kind of data set: Spodoptera test. Conditions: active compound concentration 0.1%, after 7 days. Format: in vivo. How it is done: (§2) Solvent: 7 parts by weight of dimethylformamide
as §1
(§3) To produce a suitable preparation of active compound, 1 part by weight of active compound is mixed with the stated amount of solvent and the stated amount of emulsifier, and the concentrate is diluted with water to the desired concentration.
Cabbage leaves (Brassica oleracea) are treated by being dipped into the active compound preparation of the desired concentration and populated with caterpillars of the owlet moth (Spodoptera frugiperda) while the leaves are still moist.
(§4) After the desired period of time, the kill in % is determined. 100% means that all the caterpillars have been killed; 0% means that none of the caterpillars have been killed.

The subject of data set [3] is caterpillars of the army worm (Spodoptera exigua). As to the kind of experiment: Spodoptera exigua test. It is filed as in vivo. Conditions: active compound concentration 0.1%, after 6 days. How it is done: as §2, §1, §3
Cabbage leaves (Brassica oleracea) are treated by being dipped into the active compound preparation of the desired concentration and populated with caterpillars of the army worm (Spodoptera exigua) while the leaves are still moist.
After the desired period of time, the activity in % is determined. 100% means that all the caterpillars have been killed; 0% means that none of the caterpillars have been killed.

Data set [4] is described as follows: log p, n-octanol/water partition coefficient by reverse phase HPLC (H2O/CH3CN). Format: physicochemical. Conditions: for chromatographic logP: n-octanol/water.
The subject of data set [5] is caterpillars of the cotton bollworm (Heliothis armigera). As to the kind of experiment: Heliothis armigera test. Format: in vivo. Conditions: active compound concentration 0.1%, in 6 days. The method, then: as §2, §1
To produce a suitable preparation of active compound, 1 part by weight of active compound is mixed with the stated amounts of solvent and emulsifier, and the concentrate is diluted with water to the desired concentration.
Soya bean shoots (Glycine max) are treated by being dipped into the active compound preparation of the desired concentration and populated with caterpillars of the cotton bollworm (Heliothis armigera) while the leaves are still moist.
as §4

Data set [6] relates to larvae of the mustard beetle (Phaedon cochleariae). Kind of data set: Phaedon larvae test. Conditions: after 7 days. Format: in vivo. How it is done: as §2, §1
To produce a suitable preparation of active compound, 1 part of weight of active compound is mixed with the stated amount of solvent and the stated amount of emulsifier, and the concentrate is diluted with water to the desired concentration.
After the desired period of time, the kill in % is determined. 100% means that all the beetle larvae have been killed; 0% means that none of the beetle larvae have been killed.

The subject of data set [7] is caterpillars of the diamond back moth (Plutella xylostella). As to the kind of experiment: Plutella test. Format: in vivo. Conditions: active compound concentration 0.1%, after 6 days. The method, then:
as §2, §1, §3
Cabbage leaves (Brassica oleracea) are treated by being dipped into the active compound preparation of the desired concentration and populated with caterpillars of the diamond back moth (Plutella xylostella) while the leaves are still moist.
as §4

The test system of data set [8] is All larval stages of Lucilia cuprina (OP resistant). As to the kind of experiment: Test with fly larvae/development-inhibitory activity. It is filed as in vivo. Conditions: concentration 100 ppm. The method, then: Test with Fly Larvae/development-inhibitory Activity
Test animals: All larval stages of Lucilia cuprina (OP resistant) [pupae and adults (without contact with the active compound)]
35 parts by weight of ethylene glycol monomethyl ether
35 parts by weight of nonylphenol polyglycol ether
To prepare a suitable formulation, 3 parts by weight of active compound are mixed with 7 parts of the abovementioned solvent-emulsifier mixture, and the resulting emulsion concentrate is diluted with water to the concentration desired in each case.
For each concentration, 30 to 50 larvae are transferred to horse meat (1 cm^3) located in glass tubes, and 500 μl of the test dilution are pipetted onto the meat. The glass tubes are placed into plastic beakers whose bottom is covered with sea sand and kept in a controlled-environment cabinet (26° C. ±1.5° C., 70% ±10% relative humidity). Larvicidal activity is checked after 24 hours and 48 hours. After the larvae have left (about 72 h), the glass tubes are removed and perforated plastic lids are placed on the beakers. After 1½ times the development period (hatching of the control flies), the hatched flies and the pupae/puparia are counted.
The criterion for the activity is the death of the treated larvae after 48 h (larvicidal effect), or inhibition of adults hatching from the pupae or inhibition of pupation. […]

In data set [9] the test system is green rice leaf hoppers (Nephotettix cincticeps). Kind of data set: Nephotettix test. It is filed as in vivo. Conditions: active compound concentration 1%, after 6 days. The method, then:
as §2, §1, §3
Rice seedlings (Oryza sativa) are treated by being dipped into the active compound preparation of the desired concentration and populated with green rice leaf hoppers (Nephotettix cincticeps) while the seedlings are still moist.
After the desired period of time, the kill in % is determined. 100% means that all the leaf hoppers have been killed; 0% means that none of the leaf hoppers have been killed.

The mark [10] stands for this setting: active compound concentration 0.1%.
Where [11] appears, read: active compound concentration 0.01%.

As to `CC(C)Oc1c(Cl)cc(-c2ccc(C3COC(c4c(F)cccc4F)=N3)cc2)cc1Cl` (centres unmarked) [Example I-342, 2-(2,6-Difluorophenyl)-4-(4-(4-(propyl-2-oxy)-3,5-dichlorophenyl)phenyl)-4,5-dihydro-oxazoline], the kill in % in [1], in [2], in [3], in [5], in data set [6] (setting [10]) and in data set [7] was 100% in each case. The log p in data set [4] (pH 7.5) amounted to 5.65. Regarding `CC(C)Oc1ccc(-c2ccc(C3COC(c4c(F)cccc4F)=N3)cc2)cc1Cl` (centres unmarked) [Example I-19], in data set [8], the development-inhibitory activity is 100%. For the same compound, in data set [4] (pH 7.5), the log p entry was “log p (pH 7.5): 4.96”. This compound displayed a kill in % in data set [6] (setting [11]) of 100%. On to `CC(C)Oc1ccc(-c2ccc(C3COC(c4ccccc4Cl)=N3)cc2)cc1Cl` (centres unmarked) [Example I-30], for which the log p entry in data set [4] (pH 7.5) is listed as “log p (pH 7.5): 5.37”. The kill in % in data set [6] (setting [11]) stood at 100%.

`CC(C)(C)c1ccc(COc2ccc(-c3ccc(C4COC(c5c(F)cccc5F)=N4)cc3)cc2Cl)cc1` (centres unmarked) [Example I-22] gave a development-inhibitory activity in data set [8] of 100%. `CCCc1cc(-c2ccc(C3COC(c4c(F)cccc4F)=N3)cc2)ccc1OC(C)C` (centres unmarked) [Example I-2, 2-(2,6-Difluorophenyl)-4-(4-(4-propyl-2-oxy)-3-n-propylphenyl)phenyl-2-oxazoline]: the melting point is 60 to 62 °C. Moreover, the kill in % in data set [6] (setting [11]) amounted to 100%. `C=CCc1cc(-c2ccc(C3COC(c4ccccc4C)=N3)cc2)cc(Cl)c1OC(C)C` (centres unmarked) [Example I-146]: the log p entry in data set [4] (pH 7.5) is given as “log p: 6.75 (pH 7.5)”. Same read-out and setting: the result for `C=CCc1cc(-c2ccc(C3COC(c4c(F)cccc4F)=N3)cc2)ccc1OC(C)CC` (centres unmarked) [Example I-59] reads “log p: 5.95 (pH 7.5)”. For `C=CCOc1ccc(-c2ccc(C3COC(c4c(F)cccc4Cl)=N3)cc2)cc1CC=C` (centres unmarked) [Example I-181], the log p entry in [4] (pH 7.5) is reported as “log p: 5.49”. The same measure, in the same setting: the value for `CCCc1cc(-c2ccc(C3COC(c4ccccc4Cl)=N3)cc2)ccc1OC(C)C` (centres unmarked) [Example I-240] was “log p: 6.35”.

As for `CC(C)Oc1ccc(-c2ccc(C3COC(c4c(F)cccc4Cl)=N3)cc2)cc1Cl` (centres unmarked) [Example I-71], the log p result in data set [4] (pH 7.5) is on record as “log p: 5.25 (pH 7.5)”. Still for that read-out and setting: the value for `Cc1cc(-c2ccc(C3COC(c4c(F)cccc4Cl)=N3)cc2)ccc1OC(C)C` (centres unmarked) [Example I-163] was “log p: 5.45”. On to `CCCc1cc(-c2ccc(C3COC(c4ccccc4Cl)=N3)cc2)ccc1OC(C)C` (centres unmarked) [Example I-36], for which, in [4] (pH 7.5), the log p entry is reported as “log p: 6.35 (pH 7.5)”. As for `CCOC(=O)Oc1c(Cl)cc(-c2ccccc2)cc1Cl` [(2,6-dichloro-4-phenyl-phenyl) ethyl carbonate], the chromatographic logP in data set [4] (pH 7.5) is 4.65. `CCCc1cc(-c2ccc(C3COC(c4ccccc4F)=N3)cc2)ccc1OC(C)CC` (centres unmarked) [Example I-205]: the log p result in data set [4] (pH not given) was “log p: 6.47”. With `CCCc1cc(-c2ccc(C3COC(c4ccccc4Br)=N3)cc2)ccc1OC(C)C` (centres unmarked) [Example I-40], in data set [4] (pH 7.5), the log p result is “log p: 6.40 (pH 7.5)”. On to `CCOC(=O)Oc1ccc(-c2ccccc2)cc1C` [(2-Methyl-4-phenyl-phenyl) ethyl carbonate], for which the chromatographic logP in [4] (pH 2.3) was found to be 4.04. Still for that read-out and setting: the value for `CCCc1cc(-c2ccccc2)ccc1OC(C)=O` [4-acetoxy-3-propyl-biphenyl] was 4.32. For `CC(C)COc1ccc(-c2ccc(C3COC(c4c(F)cccc4Cl)=N3)cc2)cc1Cl` (centres unmarked) [Example I-77], in [4] (pH 7.5), the log p entry was “log p: 5.89 (pH 7.5)”.

On to `C=CCc1cc(-c2ccc(C3COC(c4c(F)cccc4F)=N3)cc2)cc(CC=C)c1OC(C)CC` (centres unmarked) [Example I-139], for which the log p entry in data set [4] (pH 7.5) is “log p: 6.39”. On the same count and under the same terms, the value for `CC(C)COc1ccc(-c2ccc(C3COC(c4ccccc4Cl)=N3)cc2)cc1Cl` (centres unmarked) [Example I-34] was “log p (pH 7.5): 6.03”.

Turning to `C=CCOc1c(Cl)cc(-c2ccc(C3COC(c4c(F)cccc4F)=N3)cc2)cc1Cl` (centres unmarked) [Example I-344], the kill in % in [1], in data set [2], in data set [9] and in data set [6] (setting [10]) was 100% each time. `CC(C)Oc1ccc(-c2ccc(C3COC(c4ccccc4F)=N3)cc2)cc1Cl` (centres unmarked) [Example I-32]: in data set [4] (pH 7.5), the log p result is given as “log p (pH 7.5): 5.04”. The compound `C=CCOc1ccc(-c2ccc(C3COC(c4ccccc4C)=N3)cc2)cc1CCC` (centres unmarked) [Example I-314] came in with a chromatographic logP in data set [4] (pH 7.5) of 6.44.

As for `CC(C)COc1ccc(-c2ccc(C3COC(c4ccccc4F)=N3)cc2)cc1Cl` (centres unmarked) [Example I-217], the log p result in [4] (pH 7.5) was “log p: 5.70”. Same read-out and setting: the result for `CCCc1cc(-c2ccc(C3COC(c4c(F)cccc4Cl)=N3)cc2)ccc1OC(C)CC` (centres unmarked) [Example I-86] reads “log p: 6.62 (pH 7.5)”.

As usually defined, the melting point is the temperature, or range, at which the solid turns liquid. The term chromatographic logP denotes a lipophilicity value derived from retention on a column.
